Measurements taken from ChEMBL document CHEMBL2429853, “Gardovatine, a novel Strychnos-Strychnos bisindole alkaloid with cytotoxicity from Gardneria oveta” (Bioorg Med Chem Lett, 2013).

Assays:
Assay type in all cases: functional, cell-based
SW480 = experiment: Cytotoxicity against human SW480 after 48 hrs by MTT assay; details: SW480, 48 h
A549 = experiment: Cytotoxicity against human A549 after 48 hrs by MTT assay; details: A549, 48 h
MCF7 = experiment: Cytotoxicity against human MCF7 after 48 hrs by MTT assay; details: MCF7, 48 h
SMMC-7721 = experiment: Cytotoxicity against human SMMC7721 after 48 hrs by MTT assay; details: SMMC-7721, 48 h
HL-60 = experiment: Cytotoxicity against human HL60 after 48 hrs by MTT assay; details: HL-60, 48 h

Structure (SMILES)	IC50 (SW480)	IC50 (A549)	IC50 (MCF7)	IC50 (SMMC-7721)	IC50 (HL-60)
C/C=C1/CN2CCc3c4n(c5ccccc35)/C=C3/[C@H]5C[C@@H]6N(CC[C@@]67c6ccccc6N(/C=C\4[C@H]1CC2=O)[C@@H]37)C/C5=C/C [(15S,19E,2'S,3'S,7'R,15'S,19'E)-GARDOVATINE]	16.1 µM	14.2 µM	13.9 µM	10.5 µM	9.8 µM
C/C=C1/CN2CC[C@]34c5ccccc5N5[C@H]3[C@H]([C@H]3O[C@]6([C@@H]7N3c3ccccc3[C@@]73CCN7C/C(=C/C)[C@@H]6C[C@H]73)[C@H]5OC)[C@H]1C[C@H]24 [DIVARINE]	1.6 µM	3.2 µM	3 µM	3.2 µM	1.2 µM
